Legend:
MCF-7 tumors = assay: MCF-7 tumor growth in SCID mice, doxorubicin with oral or topical bicarbonate; format: in vivo
Procedure: The start of the bicarbonate treatment was designated as day 1.
Tumor volumes and animal weights were monitored every 2 days. […] Other characteristics of tumors that increase its potential for carcinogenesis other than growth rates are measured by other parameters as well, including inhibition metastasis.

MCF-7 cells = assay: Doxorubicin uptake and cytotoxicity at medium pH 6.8 or 7.4; format: cell-based; details: raising the pHe from 6.8 to 7.4
Procedure: Twenty-four hours later, regular growth medium was replaced, and cells allowed to grow a subsequent 72 h, after which time they were fixed and stained with crystal violet for determination of cell number.

doxorubicin
decrease of tumor growth rate (MCF-7 tumors; Group B, 1.6 mg/kg i.p. days 3, 7, 11, doxorubicin alone): ~30%
reduction in tumor growth rate (MCF-7 tumors; Group D, doxorubicin i.p. with 200 mM sodium bicarbonate drinking water): 55%
reduction in tumor growth rate (MCF-7 tumors; Group F, doxorubicin i.p. with topical bicarbonate formulation 150 μL/day): significantly lowered tumor growth rate
reduction in tumor growth rate (MCF-7 tumors; Group F, doxorubicin i.p. with topical bicarbonate formulation 150 μL/day, listed as Doxorubicin): 55%
enhancement of cytotoxicity (MCF-7 cells): 2.25 fold
increase in intracellular doxorubicin concentrations (MCF-7 cells): 2.56 fold
